Laboratory results reported in US7709482B2, “Polycyclic heteroaryl substituted triazoles useful as Axl inhibitors” (Rigel Pharmaceuticals, Inc., priority 2006, dated 2010).

Biological target: T1, Axl (Homo sapiens, UniProt P30530)
T1 construct: endogenous in cells; host or cells: HeLa cells
T1 sequence (P30530 26-894): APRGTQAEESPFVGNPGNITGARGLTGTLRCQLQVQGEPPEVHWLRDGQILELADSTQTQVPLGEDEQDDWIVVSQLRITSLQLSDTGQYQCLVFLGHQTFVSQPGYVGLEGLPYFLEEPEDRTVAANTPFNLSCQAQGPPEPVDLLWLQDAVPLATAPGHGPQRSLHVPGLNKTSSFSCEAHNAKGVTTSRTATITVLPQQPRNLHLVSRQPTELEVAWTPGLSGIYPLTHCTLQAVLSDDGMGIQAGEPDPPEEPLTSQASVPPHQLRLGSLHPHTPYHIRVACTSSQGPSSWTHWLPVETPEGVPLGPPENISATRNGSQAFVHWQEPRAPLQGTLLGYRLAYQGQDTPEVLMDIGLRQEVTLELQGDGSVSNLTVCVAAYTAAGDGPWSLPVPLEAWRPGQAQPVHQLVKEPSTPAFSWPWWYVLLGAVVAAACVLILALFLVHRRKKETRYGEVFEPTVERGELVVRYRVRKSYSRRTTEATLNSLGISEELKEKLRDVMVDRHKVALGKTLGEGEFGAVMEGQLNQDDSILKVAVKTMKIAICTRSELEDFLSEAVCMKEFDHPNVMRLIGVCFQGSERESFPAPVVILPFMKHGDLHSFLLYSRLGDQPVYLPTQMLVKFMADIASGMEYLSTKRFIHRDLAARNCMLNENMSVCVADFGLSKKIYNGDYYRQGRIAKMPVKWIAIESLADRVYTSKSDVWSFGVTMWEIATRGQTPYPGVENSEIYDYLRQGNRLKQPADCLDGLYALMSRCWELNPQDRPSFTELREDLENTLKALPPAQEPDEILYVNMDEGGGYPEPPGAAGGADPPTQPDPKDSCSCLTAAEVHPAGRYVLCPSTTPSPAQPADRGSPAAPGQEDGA
Assay: Phospho-Akt In-Cell Western Assay (inhibition of Axl activity after Axl-antibody cross-linking)
Format: cell-based
Settings: Hela cells, phospho-Akt chemiluminescence normalized to relative cell number; compounds of formula (Ia), Table 1; read-out: IC50
Method in brief: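 Phospho-Akt was detected in formaldehyde-fixed cells by in-cell immunostaining with HRP chemiluminescence. Before fixation, HeLa cells kept 24 h in low-serum medium containing 500 ng/mL Axl/Fc received compound for 1 h at 37 °C, followed by 5-min Axl activation through antibody clustering.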

SMILES	IC50 [nM]
Nc1nc(Nc2ccc(N3CCC(N4CC5CN(C6CCCCC6)CC5C4)CC3)c(F)c2)nn1-c1cc2c(nn1)-c1ccccc1CCC2 (centres unmarked) [Compound 88, 1-(6,7-dihydro-5H-benzo[6,7]cyclohepta[1,2-c]pyridazin-3-yl)-N^3-(3-fluoro-4-(4-(5-cyclohexyl-octahydropyrrolo[3,4-c]pyrrolyl)piperidin-1-yl)phenyl)-1H-1,2,4-triazole-3,5-diamine]	< 1000
Nc1nc(Nc2ccc3c(c2)CCCCO3)nn1-c1cc2c(nn1)-c1ccccc1CCC2 [Compound 89, 1-(6,7-dihydro-5H-benzo[6,7]cyclohepta[1,2-c]pyridazin-3-yl)-N^3-(2,3,4,5-tetrahydrobenzo[b]oxepin-7-yl)-1H-1,2,4-triazole-3,5-diamine]	1000 to 10000
CCCCN(Cc1ccc(Nc2nc(N)n(-c3cc4c(nn3)-c3ccccc3CCC4)n2)cc1)C(C)=O [Compound 90, 1-(6,7-dihydro-5H-benzo[6,7]cyclohepta[1,2-c]pyridazin-3-yl)-N^3-(4-((N-butyl-N-acetoamino)methyl)phenyl)-1H-1,2,4-triazole-3,5-diamine]	1000 to 10000
Nc1nc(Nc2ccc(CC3C(=O)Nc4ccc(F)cc43)cc2)nn1-c1cc2c(nn1)-c1ccccc1CCC2 (centres unmarked) [Compound 91, 1-(6,7-dihydro-5H-benzo[6,7]cyclohepta[1,2-c]pyridazin-3-yl)-N^3-(4-((5-fluoroindolin-2-on-3-yl)methyl)phenyl)-1H-1,2,4-triazole-3,5-diamine]	> 20000
Nc1nc(Nc2ccc(I)nc2)nn1-c1cc2c(nn1)-c1ccccc1CCC2 [Compound 92, 1-(6,7-dihydro-5H-benzo[6,7]cyclohepta[1,2-c]pyridazin-3-yl)-N^3-(6-iodopyridin-3-yl)-1H-1,2,4-triazole-3,5-diamine]	> 20000

The next lines start with the values.

IC50 [nM]	SMILES
< 1000	CN(C1CCCC1)C1CCN(c2ccc(Nc3nc(N)n(-c4cc5c(nn4)-c4ccccc4CCC5)n3)cc2F)CC1 [Compound 82, 1-(6,7-dihydro-5H-benzo[6,7]cyclohepta[1,2-c]pyridazin-3-yl)-N^3-(3-fluoro-4-(4-(N-methyl-cyclopentylamino)-piperidinyl)phenyl)-1H-1,2,4-triazole-3,5-diamine]
1000 to 10000	CCCN(CCC)C1CCN(c2ccc(Nc3nc(N)n(-c4cc5c(nn4)-c4ccccc4CCC5)n3)cc2F)CC1 [Compound 83, 1-(6,7-dihydro-5H-benzo[6,7]cyclohepta[1,2-c]pyridazin-3-yl)-N^3-(3-fluoro-4-(4-(dipropylamino)piperidin-1-yl)phenyl)-1H-1,2,4-triazole-3,5-diamine]
< 1000	CCCN1CCC2CN(c3ccc(Nc4nc(N)n(-c5cc6c(nn5)-c5ccccc5CCC6)n4)cc3F)CCC21 (centres unmarked) [Compound 84, 1-(6,7-dihydro-5H-benzo[6,7]cyclohepta[1,2-c]pyridazin-3-yl)-N^3-(3-fluoro-4-(1-propyloctahydro-1H-pyrrolo[3,2-c]pyridine-5-yl)phenyl)-1H-1,2,4-triazole-3,5-diamine]
< 1000	CN1CCN(C2CCN(c3ccc(Nc4nc(N)n(-c5cc6c(nn5)CCCc5ccccc5-6)n4)cc3F)CC2)CC1 [Compound 85, 1-(6,7-dihydro-5H-benzo[6,7]cyclohepta[4,5-c]pyridazin-2-yl)-N^3-(3-fluoro-4-(4-(N-methylpiperazin-1-yl)piperidin-1-yl)phenyl)-1H-1,2,4-triazole-3,5-diamine]
1000 to 10000	CC(C)(C)OC(=O)NC1CCN(c2ccc(Nc3nc(N)n(-c4cc5c(nn4)-c4ccccc4CCC5)n3)cc2F)CC1 [Compound 86, 1-(6,7-dihydro-5H-benzo[6,7]cyclohepta[1,2-c]pyridazin-3-yl)-N^3-(3-fluoro-4-(4-(tert-butyloxycarbonylamino)-piperidin-1-yl)phenyl)-1H-1,2,4-triazole-3,5-diamine]
< 1000	Nc1nc(Nc2ccc(N3CCC(N)CC3)c(F)c2)nn1-c1cc2c(nn1)-c1ccccc1CCC2 [Compound 87, 1-(6,7-dihydro-5H-benzo[6,7]cyclohepta[1,2-c]pyridazin-3-yl)-N^3-(3-fluoro-4-(4-aminopiperidin-1-yl)phenyl)-1H-1,2,4-triazole-3,5-diamine]
